According to patent US12252492B2, “Substituted fused pyrrolo-diazepinones and uses thereof” (Northwestern University, priority 2018, dated 2025):

How the values were obtained:
Format in all cases: cell-based, human
SK-MEL-28 = assay: NCI60 one-dose screen, SK-MEL-28; settings: SK-MEL-28 (Melanoma); NCI 60 one-dose, 10^-5 M
Procedure: (§1) Anti-cancer activity screening of all compounds was performed by the NCI Developmental Therapeutics Program (DTP) through their NCI60 screening initiative. Assay details can be found at the website dtp.cancer.gov/discovery_development/nci-60/methodology.htm. Information from this website is reproduced here for convenience.
(§2) As of early 2007 all compounds submitted to the NCI 60 Cell screen are tested initially at a single high dose (10^-5 M) in the full NCI 60 cell panel. Only compounds which satisfy pre-determined threshold inhibition criteria in a minimum number of cell lines will progress to the full 5-dose assay. The threshold inhibition criteria for progression to the 5-dose screen was selected to efficiently capture compounds with anti-proliferative activity based on careful analysis of historical DTP screening data. The threshold criteria may be updated as additional data becomes available.
(§3) The One-dose data will be reported as a mean graph of the percent growth of treated cells and will be similar in appearance to mean graphs from the 5-dose assay. […]
(§4) Following drug addition, the plates are incubated for an additional 48 h at 37° C., 5% CO2, 95% air, and 100% relative humidity. […] Bound stain is subsequently solubilized with 10 mM trizma base, and the absorbance is read on an automated plate reader at a wavelength of 515 nm. […]

SR = assay: NCI60 one-dose screen, SR; settings: SR (Leukemia); NCI 60 one-dose, 10^-5 M
Procedure: as §1, §2, §3, §4

HL-60(TB) = assay: NCI60 one-dose screen, HL-60(TB); settings: HL-60(TB) (Leukemia); NCI 60 one-dose, 10^-5 M
Procedure: as §1, §2, §3, §4

UACC-62 = assay: NCI60 one-dose screen, UACC-62; settings: UACC-62 (Melanoma); NCI 60 one-dose, 10^-5 M
Procedure: as §1, §2, §3, §4

EKVX = assay: NCI60 one-dose screen, EKVX; settings: EKVX (Non-Small Cell Lung Cancer); NCI 60 one-dose, 10^-5 M
Procedure: as §1, §2, §3, §4

NCI-H460 = assay: NCI60 one-dose screen, NCI-H460; settings: NCI-H460 (Non-Small Cell Lung Cancer); NCI 60 one-dose, 10^-5 M
Procedure: as §1, §2, §3, §4

PC-3 = assay: NCI60 one-dose screen, PC-3; settings: PC-3 (Prostate Cancer); NCI 60 one-dose, 10^-5 M
Procedure: as §1, §2, §3, §4

U251 = assay: NCI60 one-dose screen, U251; settings: U251 (CNS Cancer); NCI 60 one-dose, 10^-5 M
Procedure: as §1, §2, §3, §4

DU-145 = assay: NCI60 one-dose screen, DU-145; settings: DU-145 (Prostate Cancer); NCI 60 one-dose, 10^-5 M
Procedure: as §1, §2, §3, §4

HCC-2998 = assay: NCI60 one-dose screen, HCC-2998; settings: HCC-2998 (Colon Cancer); NCI 60 one-dose, 10^-5 M
Procedure: as §1, §2, §3, §4

SN12C = assay: NCI60 one-dose screen, SN12C; settings: SN12C (Renal Cancer); NCI 60 one-dose, 10^-5 M
Procedure: as §1, §2, §3, §4

NCI/ADR-RES = assay: NCI60 one-dose screen, NCI/ADR-RES; settings: NCI/ADR-RES (Ovarian Cancer); NCI 60 one-dose, 10^-5 M
Procedure: as §1, §2, §3, §4

MDA-MB-435 = assay: NCI60 one-dose screen, MDA-MB-435; settings: MDA-MB-435 (Melanoma); NCI 60 one-dose, 10^-5 M
Procedure: as §1, §2, §3, §4

M14 = assay: NCI60 one-dose screen, M14; settings: M14 (Melanoma); NCI 60 one-dose, 10^-5 M
Procedure: as §1, §2, §3, §4

786-0 = assay: NCI60 one-dose screen, 786-0; settings: 786-0 (Renal Cancer); NCI 60 one-dose, 10^-5 M
Procedure: as §1, §2, §3, §4

NCI-H226 = assay: NCI60 one-dose screen, NCI-H226; settings: NCI-H226 (Non-Small Cell Lung Cancer); NCI 60 one-dose, 10^-5 M
Procedure: as §1, §2, §3, §4

RXF 393 = assay: NCI60 one-dose screen, RXF 393; settings: RXF 393 (Renal Cancer); NCI 60 one-dose, 10^-5 M
Procedure: as §1, §2, §3, §4

OVCAR-4 = assay: NCI60 one-dose screen, OVCAR-4; settings: OVCAR-4 (Ovarian Cancer); NCI 60 one-dose, 10^-5 M
Procedure: as §1, §2, §3, §4

| SMILES | Growth Percent (SK-MEL-28) | Growth Percent (SR) | Growth Percent (HL-60(TB)) | Growth Percent (UACC-62) | Growth Percent (EKVX) | Growth Percent (NCI-H460) | Growth Percent (PC-3) | Growth Percent (U251) | Growth Percent (DU-145) | Growth Percent (HCC-2998) | Growth Percent (SN12C) | Growth Percent (NCI/ADR-RES) | Growth Percent (MDA-MB-435) | Growth Percent (M14) | Growth Percent (786-0) | Growth Percent (NCI-H226) | Growth Percent (RXF 393) | Growth Percent (OVCAR-4) |
| --- | --- | --- | --- | --- | --- | --- | --- | --- | --- | --- | --- | --- | --- | --- | --- | --- | --- | --- |
| CC(=O)N1c2ccccc2NC2=C(C(=O)N(Cc3ccccc3)C2(C)C)C1c1ccco1 (stereo not drawn) [NUCC-608455] | 57.26% | 23.29% | 9.63% | 21.25% | 35.37% | 4.83% | 29.67% | 24.64% | 7.82% | 3.73% | 35.91% | 82.92% | −56.24% | −13.58% | 21.45% | 65.66% | −11.72% | 48.83% |
| CC(=O)N1c2ccccc2NC2=C(C(=O)N(C)C2(C)C)C1c1ccccc1 (stereo not drawn) [NUCC-60872] | 56.02% | 16.70% | 7.50% | 32.33% | 61.53% | 21.87% | 36.41% | 18.07% | 78.98% | 60.81% | 40.74% | 101.74% | −67.83% | 21.48% | 80.09% | 91.06% | 27.79% | 55.16% |
